Source: patent EP4467141A1, “PYRAZOLO-QUINOLINES AS SELECTIVE INHIBITORS OF GENOTOXIC STRESS-INDUCED IKK/NF- KB PATHWAYS FOR CANCER THERAPY” (Max-Delbrück-Centrum für Molekulare Medizin in der …, priority 2023, dated 2024)
Read-outs that look alike come from different tables or passages of the source.

What was measured:
[1] = target: T1, PIP4K2A (Homo sapiens, UniProt P48426); assay: Kinase panel study; assay type: biochemical; settings: for inhibition at 1 µM: 1000nM
T1 construct: purchased Thermo Fisher Scientific
T1 sequence (P48426 1-406): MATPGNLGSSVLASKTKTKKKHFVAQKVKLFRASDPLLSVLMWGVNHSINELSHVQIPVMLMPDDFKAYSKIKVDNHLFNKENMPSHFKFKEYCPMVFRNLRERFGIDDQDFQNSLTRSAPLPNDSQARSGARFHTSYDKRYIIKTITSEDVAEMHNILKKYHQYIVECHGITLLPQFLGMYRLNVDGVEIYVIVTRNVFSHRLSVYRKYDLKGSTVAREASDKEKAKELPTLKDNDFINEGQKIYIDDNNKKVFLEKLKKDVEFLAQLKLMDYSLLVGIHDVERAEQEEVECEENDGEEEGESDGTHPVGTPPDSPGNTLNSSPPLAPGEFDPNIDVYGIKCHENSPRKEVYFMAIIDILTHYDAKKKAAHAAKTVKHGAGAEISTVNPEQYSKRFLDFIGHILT
Procedure: (§1) The Kinase panel study was entirely provided by Thermo Fisher Scientific using the two lead compounds MW01 and MW05 as well as their derivatives (MW01-E06, MW01-E10, MW01-E14, MW01-E18, MW05-E2, MW05-E3, MW05-E9 and MW05-E10. The experiment was performed using the ZLyte or Adapta protocol according to manufacturer standard operating procedures.
(§2) Based on their similar effects in our screen and molecular analysis, MW01 and MW05 were used in comparative target deconvolution studies seeking common targets despite their distinct structures. To eliminate previously identified kinases regulating NF-κB activity, such as IKK, as possible targets of MW01 and MW05, an in vitro kinase inhibition assay was performed. […] We next investigated if any of the shared kinase targets of MW01 and MW05 play a role in genotoxic stress-induced NF-κB activity and established several criteria to narrow down pathway-relevant targets. Considering the similar NF-κB inhibition phenotypes of both compounds, we hypothesized first that the target should be shared by both lead compounds. Second, based on the CaCo2 recovery values and experimental treatment concentration of 10 µM), the putative target kinase should have a low IC50 of, at most, 2000 nM for both lead compounds in the in vitro kinase panel (Fig. 2A). Based on these criteria alone, we arrived at a relatively short list of potential targets for further analysis, leaving only PIK3CG, PIK3C2G, and CLK2 (Fig. 2B). IC50 values for PIK3C2G by both lead compounds agreed best with these criteria, but RNA expression analysis indicates high tissue specificity as well as lack of expression of this kinase in our U2-OS model cell line, which we then eliminated from further analysis (Uhlén et al., 2015). […] Table 6: Percentage of inhibition of the indicated kinases by MW01 or MW05 at either 10 µM or 1 µM. n.d. = not determined.

[2] = target: T2, PIK3C2G (PI3K-C2 gamma) (Homo sapiens, UniProt O75747); assay: Kinase panel study; assay type: biochemical; settings: for inhibition at 1 µM: 1000nM; for IC50: in vitro kinase panel, criterion of at most 2000 nM
T2 construct: purchased Thermo Fisher Scientific
T2 sequence (O75747 1-1486): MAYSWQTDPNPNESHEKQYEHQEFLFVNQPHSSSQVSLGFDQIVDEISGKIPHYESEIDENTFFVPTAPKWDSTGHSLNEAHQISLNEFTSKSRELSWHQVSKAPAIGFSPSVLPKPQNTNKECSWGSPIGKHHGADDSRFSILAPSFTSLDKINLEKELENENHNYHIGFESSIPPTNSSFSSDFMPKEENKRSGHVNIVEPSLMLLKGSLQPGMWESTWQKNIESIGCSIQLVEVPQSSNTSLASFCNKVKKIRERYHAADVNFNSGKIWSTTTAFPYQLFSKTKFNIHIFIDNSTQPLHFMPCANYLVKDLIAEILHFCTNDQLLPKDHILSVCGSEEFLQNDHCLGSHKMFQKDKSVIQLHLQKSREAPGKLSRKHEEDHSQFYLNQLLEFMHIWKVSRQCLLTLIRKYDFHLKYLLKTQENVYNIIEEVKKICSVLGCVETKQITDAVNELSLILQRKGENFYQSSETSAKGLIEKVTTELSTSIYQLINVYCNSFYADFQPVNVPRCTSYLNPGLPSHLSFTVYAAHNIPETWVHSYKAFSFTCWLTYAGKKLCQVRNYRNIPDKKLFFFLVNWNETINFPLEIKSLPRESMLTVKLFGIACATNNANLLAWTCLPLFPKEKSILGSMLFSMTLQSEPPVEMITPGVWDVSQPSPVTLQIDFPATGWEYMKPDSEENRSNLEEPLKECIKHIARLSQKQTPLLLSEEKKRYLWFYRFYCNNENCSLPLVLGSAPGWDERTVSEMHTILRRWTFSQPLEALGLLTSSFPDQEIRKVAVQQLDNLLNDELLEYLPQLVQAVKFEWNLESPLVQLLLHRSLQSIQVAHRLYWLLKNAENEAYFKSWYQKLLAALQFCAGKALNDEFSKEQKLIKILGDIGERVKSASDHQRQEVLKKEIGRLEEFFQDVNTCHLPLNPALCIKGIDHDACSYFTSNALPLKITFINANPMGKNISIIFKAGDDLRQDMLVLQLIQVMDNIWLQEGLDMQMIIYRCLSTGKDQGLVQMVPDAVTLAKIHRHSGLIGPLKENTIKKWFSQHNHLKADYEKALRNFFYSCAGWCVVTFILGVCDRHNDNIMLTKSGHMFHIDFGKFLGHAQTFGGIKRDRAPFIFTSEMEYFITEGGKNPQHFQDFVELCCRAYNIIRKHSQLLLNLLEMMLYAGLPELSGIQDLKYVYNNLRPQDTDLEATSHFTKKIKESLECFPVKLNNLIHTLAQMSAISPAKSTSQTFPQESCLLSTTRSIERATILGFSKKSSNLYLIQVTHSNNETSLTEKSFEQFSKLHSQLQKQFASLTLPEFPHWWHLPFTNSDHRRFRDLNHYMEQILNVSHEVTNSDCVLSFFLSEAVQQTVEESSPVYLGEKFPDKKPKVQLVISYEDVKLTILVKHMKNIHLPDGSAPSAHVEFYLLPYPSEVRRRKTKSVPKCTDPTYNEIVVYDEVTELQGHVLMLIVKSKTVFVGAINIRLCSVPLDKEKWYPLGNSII
Procedure: as §1, §2

[3] = read-out: Percentage of inhibition
[4] = 10000nM, read-out: Percentage of inhibition
[5] = PIP4K2A, compound at 10µM, read-out: % of Inhibition
[6] = PIK3C2G (PI3K-C2 gamma), compound at 10µM, read-out: % of Inhibition

Molecule `COc1ccc2c(c1OC)c(=O)n1c3ccc(O)cc3c3ccnc2c31` [MW01, 5-Hydroxy-10,11-dimethoxy-9H-benzo[c]indolo[3,2,1-ij][1,5]naphthyridin-9-one] has an inhibition at 1 µM [1, 3] of -8%, an inhibition at 10 µM [1, 4] of -3% and an inhibition at 1 µM [2, 3] of 92%. The inhibition at 10 µM [2, 4] was 94% and the IC50 [2] was no more than 2 µM.
`COc1ccc2c(c1)c1ccnc3c4nc(OC)ccc4c(=O)n2c13` [MW01-E6, 5,15-dimethoxy-1,11,14-triazapentacyclo[10.7.1,0^2,7.0^8,^20.0^13,^18]icosa-2(7),3,5,8(20),9,11,13(18),14,16-nonaen-19-one] showed an inhibition at 10 µM [1, 5] of -4% and an inhibition at 10 µM [2, 6] of 35%.
Work on `O=c1c2cc(O)ccc2c2nccc3c4cc(O)ccc4n1c32` [MW01-E10, 5,16-dihydroxy-1,11-diazapentacyclo[10.7.1.0^2,^7.0^8,^20.0^13,^18]icosa-2(7),3,5,8(20),9,11,13(18),14,16-nonaen-19-one] yielded an inhibition at 10 µM [1, 5] of -2% and an inhibition at 10 µM [2, 6] of 81%.
In the case of `COc1ccc2c(c1)c1ccnc3c4ccnc(OC)c4c(=O)n2c13` [MW01-E14, 5,17-dimethoxy-1,11,16-triazapentacyclo[10.7.1.0^2,^7.0^8,^20.0^13,^18]icosa-2(7),3,5,8(20),9,11,13(18),14,16-nonaen-19-one], the inhibition at 10 µM [1, 5] is reported as 53% and the inhibition at 10 µM [2, 6] is reported as 50%.
`O=c1c2cnccc2c2nccc3c4cc(O)ccc4n1c32` [MW01-E18, 5-hydroxy-1,11,16-triazapentacyclo[10.7.1.0^2,^7.0^8,^20.0^13,^18]icosa-2(7),3,5,8(20),9,11,13(18),14,16-nonaen-19-one] was tested, and the inhibition at 10 µM [1, 5] was -1% and the inhibition at 10 µM [2, 6] was 81%.
In the case of `COc1ccc2cc3c(N)nn(C(=O)c4cccc(N(C)C)c4)c3nc2c1` [MW05, (3-Amino-7-methoxypyrazolo[3,4-b]quinolin-1-yl)-[3-(dimethylamino)phenyl]methanone], the inhibition at 1 µM [1, 3] is reported as -10%, the inhibition at 10 µM [1, 4] is reported as -9% and the inhibition at 1 µM [2, 3] is reported as 56%. The inhibition at 10 µM [2, 4] was 87% and the IC50 [2] was no more than 2 µM.
`COc1ccc2nc3c(cc2c1)c(N)nn3C(=O)c1cccc(N(C)C)c1` [MW05-E2, 1-[3-(dimethylamino)benzoyl]-6-methoxy-1H-pyrazolo[3,4-b]quinolin-3-amine] gave an inhibition at 10 µM [1, 5] of -6% and an inhibition at 10 µM [2, 6] of 27%.
